Laboratory results as given in patent US10239871B2, “Compounds and methods for regulating integrins” (ADHAERE PHARMACEUTICALS, INC., priority 2012, dated 2019).

Assays:
MyD88 = MyD88 levels in THP-1 cells; format: cell-based, human
From the text: TLR4-mediated signaling requires participation of the adaptor protein MyD88 (43) and MyD88−/− mice are protected from kidney damage following IRI. TLR4 activation leads to the binding and stabilization of adaptor protein MyD88, which recruits downstream kinases to initiate Nf-kB-mediated pro-inflammatory signaling. Subsequently, TLR4 signaling induces a negative feedback loop by endogenous activation of CD11b/CD18, which activates Syk to phosphorylate MyD88, tagging it for ubiquitin-mediated destruction. […] A pilot experiment was carried out to validate this hypothesis by determining the levels of MyD88 in human monocytic THP-1 cells.

CD11b/CD18 [1] = target: T1, CD11b/CD18 (Homo sapiens, UniProt P11215); experiment: Flow chamber assay (adhesion under wall shear stress); format: cell-based; parameters: expressed in transfected cells; host or cells: 293T cells, transient transfection; conditions: 25 μM LA1, unlike Mn2+
Method: The flow chamber assay was performed as described in literature (Chen, J. F., Salas, A. & Springer, T. A. Bistable regulation of integrin adhesiveness by a bipolar metal ion cluster. Nat. Struct. Biol. 10, 995-1001 (2003)). A polystyrene Petri dish was coated with a 5 mm diameter, 20 μL spot of 20 μg/mL purified h-ICAM-1/Fc (R&D) or 20 μg/mL Fibrinogen in coating buffer (PBS, 10 mM NaHCO3, pH 9.0) for 1 hour at 37° C., followed by 2% BSA in coating buffer for 1 hour at 37° C. to block nonspecific binding sites. Transient transfected 293T cells were washed twice with wash buffer (20 mM Hepes, 150 mM NaCl, pH 7.4, 5 mM EDTA/0.5% BSA), subsequently once with HBS containing 1 mM Ca^2+ and 1 mM Mg^2+ (HBS^++), and finally resuspended at the concentration of 5×10^6/mL in HBS^++ ([…], 0.5% BSA) and kept on ice. Cells were incubated in 2% DMSO with or without 25 μM LA1 at 37° C. for 30 minutes. And subsequently infused in the flow chamber using a Harvard apparatus programmable syringe pump. Cells were allowed to settle down for 5 minutes, and accumulate for 30 seconds at 0.3 dyn/cm^2 and 10 seconds at 0.4 dyn/cm^2. […] The number of cells remaining abound at the end of each 10-sec interval were determined. Rolling velocity at each shear stress was calculated from the average distance traveled by rolling cells in 3 seconds. […]

neutrophil chemotaxis = conditions: previously shown [55]; cited from earlier work
[2] = test system: Human Umbilical Vein Endothelial Cells; experiment: TUNEL assay, HUVEC co-cultured with LA1-activated neutrophils; format: cell-based; conditions: LA1-mediated adhesion of neutrophils
From the text: In support of this argument, neither we nor others studying knock-in animals that express constitutively active mutants of integrins LFA-1 [54, 55] and […]4[…]7 [56] have observed any signs of vascular injury in any experimental model. FIGS. 22A-22E show an absence of apoptosis in co-cultures of LA-1 activated leukocytes and HUVEC cells.

CD11b/CD18 [3] = target: T1, CD11b/CD18; experiment: Flow cytometry with conformation reporter mAbs KIM127 and 24 on K562 WT cells; format: cell-based; parameters: K562 cells stably transfected with plasmid encoding wild-type integrin CD11b/CD18; expressed in transfected cells; conditions: LA1 15 uM, Mn2+ 1 mM; vs basal
Method: Flow cytometric analyses of K562 WT cells were performed according to published protocols. Briefly, cells were suspended in the assay buffer (Tris-buffered saline (TBS) containing 1 mM of ions Ca2+ and/or Mg2+ and 0.1% BSA). Cells ([…]) were incubated with primary mAb (1:100 dilution of IB4 ascites or the isotype controls, 1:50 […] and 24 and the relevant isotype controls, where incubations were performed at 37 °C) for 30 minutes. Subsequently, the cells were washed three times with the assay buffer and incubated with goat anti-mouse-APC (1 µg/ml, Invitrogen) for 20 minutes at 4° C. Cells were washed twice with the assay buffer and analyzed using FACSCaliber flow cytometer (BD Biosciences, CA), counting at least 10,000 events. Data was analyzed using the CellQuest software (BD Biosciences). Data shown is from one of at least three independent experiments.
Ligand binding induces extension of the integrin heterodimer and large, global conformational changes leading to outside-in signaling. Binding of activating antibodies also induces global conformational changes in the integrin heterodimer and such large conformational changes mimic those induced upon ligand binding. […] Thus, mAb KIM127 is often used as a reporter for the extended conformation of P2 integrins. […]

Human macrophages = experiment: mRNA levels of pro-inflammatory factors in LPS-treated human macrophages; format: cell-based; conditions: co-treated with LPS
Method: It was shown that β2 integrin agonist leukdherin LA1 modulates the expression levels of various pro-inflammatory factors in cells. Human macrophages were treated with LPS in the absence or presence of LA1 in vitro and determined the levels of mRNA in the cells at various time points using Nanostring inflammation array (184 genes) and exiqon microRNA panels.

[4] = test system: RAW 264.7 macrophage cells; experiment: Wound healing assay (macrophage migration); format: cell-based, murine; conditions: LA1 15 μM, M18/2 20 μg/mL, 48 hours
Method: Murine RAW 264.7 macrophage cells were grown in DMEM 10% FBS medium in T75 flasks to 70% confluence. The cells were detached by trypsin treatment for 10 minutes at 37° C. and evenly reseeded in 24 well plates and allowed to attain >70% confluency. A scratch was introduced horizontally across the well using 200 µL tip applying even force throughout the etching and holding the tip at approximately an 80 degree angle. The wells were subsequently washed and fresh medium containing various treatment groups was introduced. The wound was imaged using 10× objective. The cells were allowed to grow for 48 hours and the wound was reimaged at the same field after 48 hours. The average extent of wound closure was evaluated by measuring the width of the wound. The area healed was analyzed using ImageJ software and is expressed as percentage healing after 48 hours.
For FIG. 4B, RAW 264.7 cells were plated in 24-well tissue culture plates (2×10^6 cells/well) and allowed to adhere in complete media for 12 hours. […] Images of the cells in culture were obtained immediately prior to (0 hours) and after the completion of the experiment (48 hours) using an inverted phase contrast microscope attached to a video camera.
Representative data shown here are from a triplicate well experiment from one of at least two to three independent experiments. **p<0.001, ***p<0.0001.

In the case of O=C(O)c1ccc(-c2ccc(/C=C3\SC(=S)N(Cc4ccccc4)C3=O)o2)cc1 [LA1], the “time to complete degradation of MyD88” value (MyD88; LA1 alone, absence of LPS) is reported as “less than 2 hours”, the MyD88 degradation (MyD88; co-treatment with LPS, THP-1 cells) is reported as “much faster degradation of MyD88” and the “adhesive behavior of CD11b/CD18 transfectants under wall shear stress (conformation induced)” value (CD11b/CD18 [1]) is reported as “induces priming of CD11b/CD18 and converts it into intermediate conformation”. For the same compound, the neutrophil chemotaxis (neutrophil chemotaxis) was “impairs neutrophil chemotaxis”, the “HUVEC apoptosis (TUNEL)” value [2] was “does not increase HUVEC apoptosis” and the “binding of conformation reporter KIM127” value (CD11b/CD18 [3]) was “very small increase”. For the same compound, the “binding of conformation reporter mAb 24” value (CD11b/CD18 [3]) was “small increase”, the “mRNA levels of pro-inflammatory factors upregulated by LPS” value (Human macrophages) was “significantly reduced” and the “migration of LPS- or PMA-stimulated macrophages” value [4] was “significantly, and to a similar extent, reduced the migration”. The “migration of macrophages into the wound area, agonist alone” value ([4]; vs DMSO) was “no significant increase in the migration of macrophages”.
